Experimental data published in patent US7253177B2, “Synthesis and antimalarial activity of pyrrolo[3,2-f]quinazoline-1,3-diamine derivatives” (United States of America as Represented by the Secretary of …, priority 2004, dated 2007).

Experiments:
[1] = tested on: P. falciparum FVO; test: Antimalarial activity against P. falciparum in Aotus monkey; format: in vivo, Plasmodium falciparum; details: 1 mg/kg once a day x three days, cured = parasitemia free for 100 days post treatment
Protocol: (e). Toxicity Study in Aotus monkey: Protocol: Two malaria double cured Aotus weighing 1027-695 grams respectively received single dose of 3 mg/kg orally of the two compounds 2b and 3e. The monkeys were weighed and pre-bleed for CBC and Chemistry (ALT, BUN, Creatinine) determination, and again three, seven and 15 days post treatment. Signs of toxicity such as anorexia, vomiting, diarrhea or behavior changes were recorded. […] (f). Antimalarial Activity against P. falciparum in Aotus monkey: Protocol: Six (6) malaria naive Aotus lemurinus lemurinus (weigh 787-978 grms) were divided into two groups of two Aotus each plus two controls (MN13177 male and MN 13153 male) and infected with 5×10^6 P. falciparum FVO malaria parasites with 1 ml of an appropriate dilution in RPMI media intravenously on the saphenous vein. When their parasitemia reached 5×10^4 parasites/ul, treatment was started. Giemsa-stained thick blood smears were prepared daily with a prick in the ear marginal vein and parasites enumerated by the Earle and Perez method. Group 1 Aotus received 3e at 1 mg/kg once a day×three days. Group 2 Aotus received 2b at 1 mg/kg once a day×three days. The monkeys were weight and pre-bled for CBC and Chemistry (ALT, BUN, Creatinine) determination, and on day 4 post-treatmetne (PT). Bleedings for Pk determinations were carried out on day 1 PT at time 0, 1 hr, 7:30 hr and 24 hr PT. […]

[2] = Host toxicity in animal models (general statements); format: in vivo; details: any dose, all species of animal models studied

| Compound | # Monkey Cured/# Monkey Used, P. falciparum [1] | host toxicity in efficacy studies [2] |
| --- | --- | --- |
| CCOC(=O)Nc1nc(NC(=O)OCC)c2c(ccc3c2ccn3Cc2ccccc2C(F)(F)F)n1 [Compound 2b] | 2/2 | – |
| CC(=O)N(C(C)=O)c1nc(N(C(C)=O)C(C)=O)c2c(ccc3c2ccn3Cc2ccccc2C(F)(F)F)n1 [Compound 3e, 1,3-Bis(diacetylamino)-7-(2-trifluoromethyl)benzyl-7H-pyrrolo[3,2-f]quinazoline] | 2/2 | No host toxicity |
